Reference: US5298494A, “Monosaccharides having anti-proliferation and anti-inflammatory activity, compositions and uses thereof” (Greenwich Pharmaceuticals Incorporated, priority 1993, dated 1994)

What was measured:
[1] = tested on: PGE2 production by BUD-8 skin cell fibroblasts; experiment: PGE2 production by BUD-8 skin cell fibroblasts (radioimmunoassay); type: cell-based, human; settings: concentration not given
Protocol: (§1) The effect of the compound of the present invention on the proliferative capacity of human BUD-8 skin fibroblasts was measured with the use of a ^3 H-thymidine incorporation assay using culture conditions which were similar to those used for a Con-A blastogenesis assay, described previously. Cultured skin cells were detached from the surface of tissue culture flasks mechanically with a Teflon scraper. The cells were washed, resuspended in incubation medium and the viabilities were determined. These cells were then plated in triplicate at a density of 2×10^3 cells/0.1 ml/microtiter well for the proliferation assay and a density of 1×10^4 cells/0.1 ml/microtiter well for the assays to quantitate PGE2 and LTB4. To these cells was added incubation medium containing indomethacin to inhibit prostaglandin production, or nordihydroguaiaretic acid (NDGA) to inhibit leukotriene production (positive controls).
(§2) After 18 hours of culture, samples of the BUD-8 skin cell supernatants were collected from one set of microtiter plates and frozen until assayed for PGE2 or for LTB4 content using the radioimmunoassays described below.
A radioinmunoassay (New England Nuclear) was used to quantitate PGE2 levels in BUD-8 skin cell culture supernatants. Briefly, into each polypropylene tube were mixed 0.1 ml anti-PGE2, 0.1 ml ^125 1-PGE2 and 0.1 ml PGE2 standard or PGE2 containing sample. The BUD-8 skin culture supernatants were diluted 1:2 prior to addition to the radioimmunoassay. Tubes were refrigerated overnight. A polyethylene glycol solution (16%, 6,000 m.w.) was then added to precipitate immune complexes and the radioactivity in the precipitate was counted in a gamma counter.

[2] = tested on: LTB4 production by BUD-8 skin cell fibroblasts; experiment: LTB4 production by BUD-8 skin cell fibroblasts (radioimmunoassay); type: cell-based, human; settings: concentration not given
Protocol: as §1, §2
Levels of LTB4 in aliquots of BUD-8 skin cell cultures supernatants were quantitated by radioimmunoassay (New England Nuclear). Briefly, into each polyproplyene tube were mixed 0.1 ml anti-LTB4, 0.1. ml ^3 H-LTB4 and 0.1 ml LTB4 standard or LTB4 containing sample. The BUD-8 skin cell culture supernatants were used directly in the radioimmunoassay. Tubes were refrigerated overnight. A charcoal solution (0.5 ml of 0.5% charcoal Norit A) was added and each tube was centrifuged. The radioactivity in the supernatant was then counted in a liquid scintillation counter.

[3] = tested on: BUD-8 human skin fibroblasts; experiment: Fibroblast assay: proliferation of BUD-8 skin cell fibroblasts; type: cell-based; settings: concentration not given
Protocol: The human skin cell fibroblast line, BUD-8 was obtained prior to each assay from the American Type Culture Collection. This is a fibroblast-like cell line which was originally derived from the normal skin of a person.
(§3) BUD-8 cell cultures were expanded for use in 25 cm^2 flasks at 37° C. in an atmosphere of 5% CO2 in air. At approximately 4-5 five day intervals, or when confluence was reached, the cells were passaged. This was accomplished by detaching the cells with a Teflon scraper, washing and reseeding the cells at a lower density into fresh tissue culture flasks.
as §1
After 3 days of culture, 1 uCi ^3 H-thymidine was added in a 50 ul volume to each culture well of the microtiter plates. Eighteen hours later, each of the BUD-8 cultures was examined morphologically for evidence of compound-induced toxicity such as cell rounding or granularity. The thymidine-pulsed cells were then precipitated and the amount of ^3 H-thymidine incorporated was counted in a liquid scintillation counter.
The concentrations of the compounds of the invention which were used in these assays were:
The incubation medium used for culturing the BUD-8 cells was RPMI-1640 medium containing 10% fetal bovine serum, 100 ug/ml streptomycin, 100 U/ml penicillin, 0.2M Hepes buffer solution, 5×10^-5 M 2-mercaptoethanol and 2 mM glutamine.

[4] = tested on: GS-109-V-20 human skin cell fibroblasts; experiment: Fibroblast assay: proliferation of GS-109-V-20 skin cell fibroblasts; type: cell-based
Protocol: The effect of methyl 3-O-3'-(N',N'-dimethylamino-n-propyl)-6-deoxy-D-glucopyranoside on the proliferative capacity of human GS-109-V-20 skin fibroblasts was measured with the use of ^3 H-thymidine incorporation assay. Cultured skin cells were detached from the surface of tissue culture flasks mechanically with a Teflon scraper. The cells were washed, resuspended in incubation medium and the viabilities determined. These cells were then plated in triplicate at a density of 1×10^3 cells/0.1 ml/microtiter well. To these cells was added 0.1 ml incubation medium containing the methyl 3-O-3'-(N',N'-dimethylamino-n-propyl)-6-deoxy-D-glucopyranoside compound.
After 3 days of culture, 1#uCi ^3 H-thymidine was added in 50 ul volume to each culture well of the microtiter plates. Eighteen hours later, each of the GS-109-V-20 cultures was examined morphologically for evidence of drug-induced toxicity such as cell rounding or granularity. The ^3 H-thymidine-pulsed cells were then precipitated and the amount of ^3 H-thymidine incorporation was counted on a liquid scintillation counter.
Methyl 3-O-3'-(N',N'-dimethylamino-n-propyl)-6-deoxy-D-glucopyranoside was suspended directly into the medium by extensive sonication, without being filter-sterilized. A range of doses of this compound was used to measure effects of this compound upon GS-109-V-20 cell proliferation. The following doses were used:
The human skin cell fibroblast line, GS-109-V-20, was obtained from the American Type Culture-Collection. […] These cells were selected for use because they are considered to exist in an initiated state, as opposed to being normal or transformed, and have a more extensive population doubling time and survival period in culture than do normal fibroblasts. In this regard, they would more closely reflect the biological characteristics of psoriatic or rheumatoid synovial fibroblasts which also proliferate more extensively than do normal fibroblasts, but not as extensively as immortalized transformed tumor cells.
as §3, with “The number of GS-109-V-20 cells was” for “BUD-8 cell cultures were”, “use in the described assays by culture” for “use”, “4-5” for “4-5 five”, “by trypsinization,” for “with a Teflon scraper,”

[5] = tested on: T lymphocytes (normal mouse spleen cells) stimulated with ConA; experiment: Mouse Spleen Cell ConA Blastogenesis Assay; type: cell-based, mouse (C57Bl/6); settings: control compound, concentration not given

Question: How did the “PGE2 in supernatant (positive control)” value [1] turn out when `COc1ccc2c(c1)c(CC(=O)O)c(C)n2C(=O)c1ccc(Cl)cc1` [Indo., indomethacin, reference compound] was run?
Answer: 5.3 ± 0.5 pg PGE2 /50 ul supernatant

Question: And the “calculated PGE2 production/10^5 BUD-8 cells (positive control)” value [1]?
Answer: 187 pg per 10^5 cells

Question: What about the “% effect on PGE2 production (positive control)” value ([1]; 1080 min) of the same molecule?
Answer: -66%

Question: And the “LTB4 in supernatant (positive control)” value [2]?
Answer: 39.4 ± 5.3 pg LTB4 100 ul supernatant

Question: And the “calculated LTB4 production/10^5 BUD-8 cells (positive control)” value [2]?
Answer: 1,771 pg per 10^5 cells

Question: What about the “% effect on LTB4 production (positive control)” value ([2]; 1080 min) of the same molecule?
Answer: +10%

Question: And the “% effect on BUD-8 proliferation (positive control)” value [3]?
Answer: -17%

Question: What about the “^3 H-Thymidine uptake by BUD-8 skin cells (positive control)” value [3] of the same molecule?
Answer: 6,043 ± 184 cpm

Question: And the “^3 H-Thymidine uptake by GS-109-V-20 skin cells (control compound)” value ([4]; 2 × 10^-6 M Indomethacin, 2 × 10^-6 N NDGA)?
Answer: 3,317 ± 351 cpm

Question: What about the inhibition at 2 µM ([4]; Homo sapiens, Fibroblast, read-out: % effect on GS-109-V-20 proliferation (control compound)) of the same molecule?
Answer: 14%

Question: What about the “% effect on ConA blastogenic response (positive control)” value ([5]; ConA 1 ug/ml) of the same molecule?
Answer: +4%

Question: What about the “Blastogenic response of normal spleen cells to Con-A (positive control)” value ([5]; ConA 1 ug/ml) of the same molecule?
Answer: 57.7 ± 8.7 × 10^-3 cpm

Question: And the “% effect on ConA blastogenic response (positive control)” value ([5]; ConA 4 ug/ml)?
Answer: -17%

Question: And the “Blastogenic response of normal spleen cells to Con-A (positive control)” value ([5]; ConA 4 ug/ml)?
Answer: 70.0 ± 5.6 × 10^-3 cpm
